How the values were obtained:
[1] = tested on: human thymocyte; conditions: in vitro (Jamieson et al. 2009); cited from earlier work
[2] = tested on: Sprague Dawley rat pups; assay: Oxygen-induced retinopathy (OIR) model; assay type: in vivo; conditions: 2 mg/kg/day intraperitoneal twice daily, 80% oxygen P5 to P10
Source text: Experiments in the oxygen-induced retinopathy rodent model were preformed according to the method described previously (Geranurimi et al. 2019), and summarized below.
Animals. Two-day-old (P2) Sprague Dawley rat pups and their mothers were ordered from Charles River (Raleigh, SC, USA) and acclimatized for 3 days in standard conditions. All procedures and protocols involving the use of the rats were approved by the Animal Care Committee of the research center of Hopital Maisonneuve-Rosemont and are in accordance with the Statement for the Use of Animals in Ophthalmic and Vision Research approved by the Association for Research in Vision and Ophthalmology, and guidelines established by the Canadian Council on Animal Care.
Oxygen-Induced Retinopathy in Sprague Dawley Rats. The 80% oxygen model of retinopathy was conducted as previously described (Geranurimi et al. 2019). Briefly, litters of P5 pups and their mothers were kept in a controlled 80% oxygen environment until P10. The pups were respectively injected intraperitoneally twice daily with PBS vehicle (20 μL per injection), peptide 1 or derivatives 2 (titrated to a daily dose of 2 mg/kg/day). Control litters were kept under normal air atmosphere and standard conditions. On P10, pups were euthanized by decapitation under 2% isoflurane anesthesia. Eyes were enucleated and fixed in 4% paraformaldehyde, then stored at 4° C. in phosphate-buffered saline (PBS) until further processing.
Retinal Flatmount and Immunohistochemistry. The fixed eyes were dissected, and the obtained retinas were incubated with antibodies and mounted onto slides as previously described in (Geranurimi et al. 2019). Briefly, the cornea and lens were removed from the eyes, and the retina gently removed from the underlying sclera-choroid-retinal pigmented epithelium (RPE) complex. Retinas were treated for 1h with blocking solution [1% bovine serum albumin (BSA), 1% normal goat serum, 0.1% Triton X-100 and 0.05% Tween-20 in PBS], and then incubated overnight with lectin and Iba-1 primary antibody, followed by Alexa-594-conjugated secondary antibody for 2 h. Retinas were then mounted onto microscope slides under coverslips with anti-fade mounting medium.
Microscopy. Retinal flatmounts were imaged using the Zeiss Axiolmager Z2 and the MosaiX feature of the AxioVision software as previously described (Geranurimi et al. 2019). Representative images after Iba-1 staining were taken using a laser scanning confocal microscope (Olympus IX81 with Fluoview FV1000 Scanhead) using the Fluoview Software at 30× magnification.
Quantification and Data Analysis. The FIJI software was used to quantify the area of vaso-obliteration in each retina, expressed as a percentage of the area of the whole retina. The number of Iba-1-positive cells was counted using the cell counter plug-in in the FIJI software, and the average of cell counts in 4 fields per retina was calculated. Data was analyzed using Prism 7 with one-way ANOVA and the Dunnett's test for multiple comparisons. Results were treated as significant when p was less than 0.05 and expressed as mean+SEM.

[3] = tested on: timed-pregnant CD-1 mice; assay: LPS-induced preterm birth model in mice; assay type: in vivo, mouse; conditions: 2 mg/kg/day subcutaneous, LPS 10 μg intraperitoneal on G16.5; delivery before G18.5; LPS alone ˜80%
Description: FIG. 6 is a graph showing the effects of peptides 1 and 2 on prevention of PTB. In brief, pregnant dams on day 16.5 of gestation (G16.5) were subcutaneously pretreated with peptides 1 and 2 (2 mg/kg/day subcutaneous injections) or vehicle, followed by LPS (10 μg intraperitoneal injection), and observed for delivery of pups. A dam was considered as delivering preterm if at least one pup was delivered before G18.5. n=4-5 dams per treatment group.
Timed-pregnant CD-1 mice at 16.5 days of gestation (G16.5) were anesthetized with 2% isoflurane and received an intraperitoneal injection of lipopolysaccharide (LPS, n=4 per group, a single dose of 10 ug) (Nadeau-Vallée et al., 2015; Kakinuma et al., 1997). A dosage of 2 mg/kg/day of peptides 1 and 2 or vehicle was respectively injected subcutaneously in the neck, every 12h until delivery. On G16.5, a dose of 1 mg/kg was injected 30 min before stimulation with LPS (to allow distribution of drugs to target tissues) and 1 mg/kg was injected 12h after stimulation (n=4 each treatment). Mice delivery was assessed every hour until term (G19-G19.5). A mouse was considered as delivering prematurely if the first pup was delivered earlier than G18.5. Data was analyzed using Prism 7 (GraphPad Software, San Diego, CA, USA) with one-way ANOVA and Dunnett's test for multiple comparisons. Outliers were detected using Grubb's test. Results were treated as significant when p was <0.05 and expressed as mean+SEM.
From the results of the in vitro screens, a subset of six (3R,4S)-β-substituted-Agl^3 peptides (e.g., 2c, 2d, 2f, 2l, 2n, 2q) were selected for examination in vivo in a CD-1 mouse model of preterm birth (PTB), and a Sprague Dawley rat model of oxygen-induced retinopathy (OIR). In the PTB model, timed-pregnant CD-1 dams were pre-treated with peptides 1 or 2, or PBS vehicle, and then injected with LPS on day 16.5 of gestation (G16.5). A bacterial cell wall component that contains PAMPs, LPS is known to reliably induce labor via pro-inflammatory pathways implicating IL-1 (Hirsch and Wang 2005). The CD-1 mice have a gestation of 19.2 days (Goupil et al. 2010). Dams that delivered at least one pup before G18.5 were considered to have given birth prematurely. In the absence of peptide, LPS alone induced premature labor in ˜80% of treated mice (FIG. 6). Peptide 1 and triazoles 2 l and 2q, all reduced the PTB rate to ˜20%.

[4] = Quiniou et al. 2008; cited from earlier work
[5] = tested on: IL-1β-induced NF-κB signaling in HEK-Blue IL-33/IL-1β cells; assay: NF-κB QUANTI-Blue assay; assay type: cell-based; conditions: peptide 10^−6 M, 30 min pretreatment, IL-1β 100 ng/ml
Description: FIG. 3 is a graph showing the effects of peptides 1 and 2 on IL-1β-induced NF-κB signaling in HEK-Blue cells as quantified in the QUANTI-blue assay. After pre-incubation with peptide or vehicle, HEK-Blue cells were stimulated with IL-1β for 24 h, and secreted alkaline phosphatase activity was spectroscopically detected as a reporter product from the transcription of the NF-κB gene. Data shown represents the average of 2 experiments (each with n=4 per treatment group): ****p<0.0001 compared to group treated only with IL-1β.
HEK-Blue IL-33/IL-1β cells (InvivoGen) were respectively pretreated with peptides 1 and 2 (10^−6 M), or Kineret (1.0 mg/mL) for 30 min, followed by treatment with a constant concentration of […] (100 ng/ml), and incubation at 37° C. for 4 h. Levels of secreted alkaline phosphatase in cell culture supernatant were determined using the QUANTI-Blue assay, according to the manufacturer's instructions (InvivoGen). Alkaline phosphatase activity was assessed by measuring the optical density (OD) at 620-655 nm with an EnVision Multilabel micro plate reader (PerkinElmer, Waltham, MA). Data are representative of 3 experiments (each with n=4 per treatment group).

Substance: H-D-Arg-D-Tyr-D-Thr-D-Val-D-Glu-D-Leu-D-Ala-NH2 [compound 1, reference compound]
- IL-1β-induced human thymocyte cell proliferation [1]: blocked
- retinal microglial morphology/activation (Iba-1 staining) [2]: ramified and branched microglia
- extent of vaso-obliteration (percentage of total retinal area) ([2]; vehicle ˜30%): ~20%
- PTB rate [3]: ~20%
- in vivo effects in models of hyperthermia and inflammatory bowel disease [4]: robust in vivo effects
- effect on IL-1β-induced NF-κB signaling (secreted alkaline phosphatase) [5]: no effect

Reference: US20240247029A1, “INTERLEUKIN-1 RECEPTOR MODULATORS AND USES THEREOF” (VALORISATION HSJ, LIMITED PARTNERSHIP, priority 2020, published 2024)
